In data set [1] the test system is CYP6CM1 from Bemisia tabaci. Description: Inhibition of recombinant oxidase enzyme (P450) CYP6CM1, 7-ethoxycoumarin O-deethylation. To be noted: for inhibition activity compared with PBO: CYP6CM1, statement in text; for Bemisia tabaci CYPCM1 percentage of activity remaining: recombinant enzyme 50 μL + 3 μL of 10 mM stock in acetone, 10 min incubation, 7-ethoxycoumarin. As to the method: (§1) Ability of the synergists of the invention to inhibit oxidative enzymes (P450), a major mechanism conferring resistance to xenobiotics, was measured using recombinant enzymes corresponding to CYP6CY3 from Myzus persicae and CYP6CM1 from Bemisia tabaci.
(§2) The following synergists were tested in comparison with piperonyl butoxide (PBO): • 5-n-butyl-6-((prop-2-ynyloxy)methyl)benzo[d][1,3]dioxole the compound prepared in Example 2 • 5-n-hexyl-6-((prop-2-ynyloxy)methyl)benzo[d][1,3]dioxole the compound prepared in Example 1 CYP6CM1
Substrate used was 7-ethoxycoumarin for inhibition assays as described by Ulrich and Weber (1972) and adapted to microplate format as described by De Sousa et al. (1995).
For inhibition assays, stock solutions of the compounds of Example 1 and Example 2 (10 mM) were prepared in acetone. Diluted recombinant enzyme (50 μL) was mixed with 3 μL of the above mentioned compound stock solutions, with acetone only used as a control. After 10 min incubation at room temperature, 80 μL of 0.125 mM 7-ethoxycoumarin was added, followed by 10 μL 9.6 mM NADPH (nicotinamide adenine dinucleotide phosphate) in 0.1 M sodium phosphate, pH 7.8, and O-deethylation activity monitored as above. A PBO solution (10 mM) was prepared in the same way as a comparison.

The test system of data set [2] is CYP6CY3 from Myzus persicae. The experiment in a line: Inhibition of recombinant oxidase enzyme (P450) CYP6CY3, MFC substrate. Format: biochemical. To be noted: for inhibition activity compared with PBO: CYP6CY3, statement in text; for Myzus persicae CYP6CY3 percentage of activity remaining: recombinant enzyme 50 μL + 3 μL stock in acetone (Examples 1 and 2: 0.1 mM; PBO: 10 mM), 10 min incubation, MFC. The protocol: as §1, §2
For CYP6CY3, 7-ethoxycoumarin was not an appropriate substrate and MFC (7-methoxy-4-trifluoromethylcoumarin) was utilised instead. MFC was dissolved in dimethylsulfoxide to make a 20 mM stock solution and diluted by the addition of 0.1 M sodium phosphate buffer, pH 7.8, to give a concentration of 0.5 mM. Recombinant enzyme (10 μL) was added to separate wells of a microplate as before and diluted to 50 μL with 0.1 M phosphate buffer pH 7.6, followed by the addition of 80 μL of 0.5 mM MFC. The microplate was incubated for 5 min at 30° C., and the reaction was initiated by the addition of 10 μL of 9.6 mM NADPH in 0.1 M sodium phosphate, pH 7.8. Enzyme activity was read in a Spectramax Gemini EM for 60 min, with readings taken every 2 min, using an excitation wavelength of 410 nm and an emission wavelength of 510 nm, with a 495 nm cut-off filter. The rate (FU min^−1) was calculated by the integrated software, Softmax Pro v.5.4. as before.
For inhibition assays, stock solutions of the compounds of Example 1 and 2 (0.1 mM) were prepared in acetone. Dilute recombinant enzyme (50 μL) was mixed with 3 μL of stock solutions, with acetone only used as a control. After 10 min incubation at room temperature, 80 μL of 0.5 mM MFC was added, followed by 10 μL of 9.6 mM NADPH in 0.1 M sodium phosphate, pH 7.8. Enzyme activity remaining was then monitored as above. A PBO solution (10 mM) was prepared in the same way as a comparison.

Data set [3] concerns Myzus persicae clone highly resistant to insecticide. The experiment in a line: Contact test on treated plant (pea seedling dip), synergist with neonicotinoid. It is filed as in vivo. Conditions: for Efficacy of the tested compounds: synergist 1 g/L, mortality assessed at 48 hours, Abbott's formula. The protocol: Laboratory bred Myzus persicae clone highly resistant to insecticide, derived from a field collected population after control failure, mixed age apterous parthenogenetic females adults, were assayed for the test.
Four (4) different commercially available formulated insecticides were used and diluted as follow: • imidacloprid: 1000 mL of test solution was prepared diluting in water 20 μL of commercial formulation, containing 200 g/L of a.i., equivalent to 0.004 g of imidacloprid per liter of insecticidal solution; • thiacloprid: 1000 mL of test solution was prepared diluting in water 24 μL of commercial formulation containing 480 g/L of a.i, equivalent to 0.012 g of thiacloprid per liter of insecticidal solution;
The compounds of Example 1 and Example 2 were formulated in the form of emulsified concentrate (EC).
The following amount of the EC formulations were added to the above described insecticidal solution of insecticide to have a final concentration of synergist equal to 1 g/L:
20 mL of test formulations were used to wet by dipping for 5″ a small pea seedling (1-1.5 cm long). Seedlings were left at room temperature in a fume hood and allowed to dry for 15″. After drying 10-15 apterous parthenogenetic females were moved to the seedling and allowed to settle. Mortality produced by pyrethroids was assessed 24 hours later. Mortality produced by neonicotinoids was assessed 48 hours later.
Three replicates were executed each composed by 2 subreplicates (seedlings) and 60-90 specimens were used per test formulation.
In parallel with the test, the mortality of aphids in an untreated control replicate (seedlings dipped in water) was determined using the same conditions and methods.
The efficacy was calculated according the Abbott's formula: […]

Where [4] appears, read: Imidacloprid (0.004 g per liter).
The mark [5] stands for this setting: thiacloprid (0.012 g per liter).

Consider `C#CCOCc1cc2c(cc1CCCCCC)OCO2` [Compound of Example 1, 5-n-hexyl-6-((prop-2-ynyloxy)methyl)benzo[d][1,3]dioxole], for which, in data set [1], the “inhibition activity compared with PBO” value is listed as “better than PBO” and the “Bemisia tabaci CYPCM1 percentage of activity remaining” value is 85.19%. For the same compound, in data set [2], the “inhibition activity compared with PBO” value is “better than PBO” and the “Myzus persicae CYP6CY3 percentage of activity remaining” value is given as 8.51%. Also, the “efficacy in combination with imidacloprid and thiacloprid” value in data set [3] is given as “very good efficacy”. Further, in data set [3] (setting [4]), the “Efficacy of the tested compounds” value was determined as 23.8. Moreover, the “Efficacy of the tested compounds” value in data set [3] (setting [5]) was found to be 23.8.
Consider `C#CCOCc1cc2c(cc1CCCC)OCO2` [Compound of Example 2, 5-n-butyl-6-((prop-2-ynyloxy)methyl)benzo[d][1,3]dioxole], for which, in data set [1], the “inhibition activity compared with PBO” value is “better than PBO” and the “Bemisia tabaci CYPCM1 percentage of activity remaining” value was found to be 53.48%. Moreover, in data set [2], the “inhibition activity compared with PBO” value is on record as “better than PBO” and the “Myzus persicae CYP6CY3 percentage of activity remaining” value is on record as 4.04%. In addition, in data set [3], the “efficacy in combination with imidacloprid and thiacloprid” value is reported as “very good efficacy”. In data set [3] (setting [4]), the “Efficacy of the tested compounds” value is recorded as −20.3. In data set [3] (setting [5]), the “Efficacy of the tested compounds” value is on record as −20.3.

For the origin of these results see patent US10537100B2, “Substituted methylenedioxybenzyl compounds and their use as synergists” (Endura SPA, priority 2015, dated 2020).
